These results are taken from patent publication US8367620B2, “Peptidic growth hormone secretagogues analog compounds and preparations thereof” (Centro de Ingenieria Genetica y Biotecnologia, priority 2006, dated 2013).

As usually defined, the IC50 is the concentration needed to halve the response being measured.

Where two headings read alike, the source gives them in different places. Where no end group is shown, it is not given here.

For one assay, the system named is Litopenaeus vanamei. Briefly: Growing of shrimp larvae by dipping in solution of the compounds. It counts as in vivo. Particulars: four dips of one hour every three days, 0.1 g/L. On the procedure: Shrimp larvae were subjected two four dips, for one hour every three days with different peptidic GHS analogs at 0.1 g/L. The control group was subjected to the same frequency of dipping with 1 mg/L BSA.

A further assay concerns IGF-I mRNA. Put plainly: IGF-I mRNA in liver and GH level of intraperitoneally injected tilapias. It counts as in vivo, tilapia. Particulars: liver of intraperitoneally injected tilapias. On the procedure: IGF-I mRNa was determined in the liver of intraperitoneally injected tilapias monitoring also the GH level time course, showing the peptidic GHS analog compounds as able to stimulate in fish the GH levels in the bloodstream and at incrementing the IGF-I mRNA levels after the injection of the compounds as shown in table 4.

For a further assay, the system named is tilapias. Put plainly: Growth acceleration on juvenile tilapias treated intraperitoneally. It counts as in vivo. The settings on record: juvenile tilapia, ip 0.1 μg/g twice a week, three weeks. Here is the method: The compounds were dissolved in a sodium phosphate (PBS) buffer solution and injected twice a week, during three weeks at 0.1 μg/g of humid fish weight (gbw). Compounds were applied individually to a group of 10 male tilapias with an average weight of 60.41±10.36 g and a control group with an average weight of 60.58±19.67 g was receiving PBS only as a control, measuring the average weight every week, all animals in the experiment were labelled with microchips (Stoelting Co. Wood Dale, USA.). for proper identification.

In assay [1] the test system is tilapia Oreochromis sp. larvae. Briefly: Growth stimulation of tilapia larvae by immersion. It counts as in vivo. Particulars: immersion 100 μg/L, one hour twice a week, three weeks. Here is the method: (§1) Growth stimulation experiments on tilapia Oreochromis sp. larvae were performed evaluating groups of 100 larvae with 0.01 g average, using the peptidic GHS analogs, in a 100 μg/L concentration, twice a week using an immersion time of one hour.

In the next assay the test system is lysozyme. Put plainly: Lysozyme levels in tilapia larvae treated by immersion. It counts as in vivo, Oreochromis sp. Particulars: immersion 100 μg/L. On the procedure: as §1
During this experiment lysozyme levels were also monitored and an increase of this immunity marker was obtained in the treated animals as shown in table 8.

For another assay, the system named is PC12 cells. It counts as cell-based. Here is the method: PC12 cells were stored in 75 cm^2 culture flasks on DMEM containing 5% bovine foetal serum and 10% horse serum, with 50 μg/ml gentamicin. Cells were incubated at 37° C. in 5% CO2. To induce differentiation cells were transferred at a density of 1×10^4 to polylysine covered 96 well plates in NGF supplemented DMEM media for 7 days, with medium replacement every 2-3 days. After differentiation cells were incubated with peptidic GHS analog compounds, at different concentrations for 72 h. Cell survival and proliferation was determined using the Promega non-radioactive cytotoxicity proliferation assay, Cell Titer 96, based in the conversion of 3-(4,5-dimethylthiazole-2-yl)-2,5-diphenyltetrazolium bromide (MTT) in to a spectrophotometrically detectable product. After deprivation of NGF medium is removed and 15 μl of the DMEM dissolved dye is added, after 4 hours of 37° C. incubation 100 μl of the stopping solution is added and absorbance is measured at 570 nm

The test system of assay [2] is Post-larvae of Litopenaeus vanamei. Put plainly: Growth stimulation in shrimps by dietary supplementation. It counts as in vivo. The settings on record: compound at 1% in post-larvae crustacean diet. Here is the method:
The peptidic GHS analogs were included at 1% in a post-larvae crustacean diet. Post-larvae of Litopenaeus vanamei were fed with the aforementioned diet in parallel with a control group with 1% BSA addition. The effect was measured with an optical micrometer and weighing the animals in a 0.1 mg precision scale.

The subject of assay [3] is primary cultures of granular cerebellum cells. It counts as cell-based, Wistar rats. On the procedure:
Primary cultures of granular cerebellum cells were obtained from 7-9 days Wistar rats. After a rapid dissection, rat cerebellums were submerged in a cold solution and meningeal membranes were removed, each organ was transferred to a 2-3 ml fresh medium solution and finely sliced. Cells were dissociated using a Pasteur pipette and filtered through a nylon […] membrane (Falcon, Franklin Lakes, N.J.). The number of viable cells was determined by cell counting in a hematocytometer with tripan blue as a marker. Cells were cultured on polylysine covered 96 well plates at a density of 6250 cells in […] final volume. Cultures were kept at 37° C. in 5%. CO2 after 24 h, 10 μM of cytosine arabinofuranose (AraC; Sigma) was added to inhibit the proliferation of non-neuronal cells. The capacity of neural damage prevention was tested adding 500 μM hydrogen peroxide in different concentrations of peptidic GHS analog compounds, Cell survival was determined using the Promega non-radioactive cytotoxicity proliferation assay, Cell Titer 96 (Promega).

Assay [4] has as its system Litopenaeus vanamei post-larvae. Briefly: Growth of shrimp post-larvae fed Artemia-bioencapsulated compounds. It counts as in vivo. Particulars: Artemia bioencapsulated (10 mh/L, one hour), fed four times a day for one month. Here is the method:
The peptidic GHS analogs were bioencapsulated in Artemia to be fed to Litopenaeus vanamei post-larvae. For the encapsulation the compounds were added in a 10 mh/L left for an hour, harvested and washed. The animals were fed four times a day for one month while the control group was fed with BSA encapsulated Artemia The effect was measured with an optical micrometer and weighing the animals in a 0.1 mg precision scale.

Setting [5] is: differentiated PC12 cells, 72 h incubation, MTT, read-out: IC50 during the NGF deprivation induced neuronal death.
Setting [6] is: 500 μM hydrogen peroxide, rat cerebellum granular cells, read-out: IC50 during the induced neuronal damage by Hydrogen Peroxide addition to a primary culture of neurons.

On to “HCKFDLDWH [Compound A223, L-amino acid peptide with internal side-chain cycle, SEC; ID NO: 3]”, for which the “Size Inc. (%), control group growing = 100%” value (“Size Inc. (%)” for short) is given as 110.9% in the assay on Litopenaeus vanamei, 131.6% in assay [2] and 132.0% in assay [4]. Also, the results for the “Weight Inc. (%), control group growing = 100%” value (“Weight Inc. (%)” for short) (in the assay with Litopenaeus vanamei; with tilapias; in assay [1]) were 120.0%, 105.0% and 102.0%, respectively. The “Normalized IGF-I mRNA levels to a non related synthetic peptide control group” value with IGF-I mRNA turned out to be 1.40. The “Lysozyme levels of the treated animals relative to the control group” value in the assay with lysozyme worked out at 1.52. Also, the IC50 in the assay with PC12 cells (setting [5]) was 3.12 µM; in [3] (setting [6]) it was 2.47 µM.

In the case of “HGSKFDLEFG [Compound A222, L-amino acid peptide with internal side-chain cycle, SEC; ID NO: 2]”, the “Size Inc. (%)” value in the assay on Litopenaeus vanamei came out at 112.2%; in assay [2] it was 131.0%; in assay [4], 130.3%. Besides, the “Weight Inc. (%)” value amounted to 121.0% in the assay on Litopenaeus vanamei, 96.2% in the assay on tilapias and 96.0% in [1]. In addition, the “Normalized IGF-I mRNA levels to a non related synthetic peptide control group” value with IGF-I mRNA stood at 1.115. In the assay on lysozyme, the “Lysozyme levels of the treated animals relative to the control group” value is on record as 1.43. The IC50 in the assay on PC12 cells (setting [5]) was 2.03 µM; in [3] (setting [6]), 1.3 µM.

Take HKGIDSPEQH [Compound A232]: the “Size Inc. (%)” value in the assay with Litopenaeus vanamei is listed as 123.0%; in assay [2], 139.7%; in assay [4], 139.6%. Besides, the figures for the “Weight Inc. (%)” value (in the assay on Litopenaeus vanamei; in the assay with tilapias; in assay [1]) were 132.8%, 160.1% and 148.3%, respectively. Besides, the “Normalized IGF-I mRNA levels to a non related synthetic peptide control group” value with IGF-I mRNA was determined as 1.23. In the assay with lysozyme, the “Lysozyme levels of the treated animals relative to the control group” value is listed as 2.41. Also, the IC50 turned out to be 4.89 µM in the assay with PC12 cells (setting [5]) and 3.28 µM in assay [3] (setting [6]).

For the sequence “HSKGYDLDH [Compound A227, L-amino acid peptide with internal side-chain cycle, SEC; ID NO: 7]”, the “Size Inc. (%)” value with Litopenaeus vanamei turned out to be 118.5%; in assay [2] it was 139.0%; in [4], 140.0%. For the same sequence, the “Weight Inc. (%)” value in the assay on Litopenaeus vanamei is given as 128.6%; in the assay with tilapias it was 139.9%; in assay [1] it was 140.6%. Also, in the assay with IGF-I mRNA, the “Normalized IGF-I mRNA levels to a non related synthetic peptide control group” value worked out at 1.28. The “Lysozyme levels of the treated animals relative to the control group” value in the assay with lysozyme was 1.52. The half-inhibitory concentration (IC50) was found to be 3.06 µM with PC12 cells (setting [5]) and 2.26 µM in assay [3] (setting [6]).

In the case of “SSDFKLYWG [Compound A224, L-amino acid peptide with internal side-chain cycle, SEC; ID NO: 4]”, the “Size Inc. (%)” value in the assay on Litopenaeus vanamei is 116.0%; in assay [2], 131.2%; in assay [4], 130.0%. For the same sequence, the “Weight Inc. (%)” value with Litopenaeus vanamei is 127.0%; with tilapias, 132.7%; in assay [1], 130.0%. The “Normalized IGF-I mRNA levels to a non related synthetic peptide control group” value in the assay with IGF-I mRNA came out at 1.41. For the same sequence, the “Lysozyme levels of the treated animals relative to the control group” value in the assay with lysozyme is reported as 1.37. The IC50 was 2.37 µM with PC12 cells (setting [5]) and 3.2 µM in assay [3] (setting [6]).

On to STDFKPFAI [Compound A226, STDFKPFAI], for which the “Size Inc. (%)” value in the assay with Litopenaeus vanamei came to 112.2%; in assay [2], 130.4%; in assay [4], 132.0%. The “Weight Inc. (%)” value in the assay with Litopenaeus vanamei is listed as 120.1%; with tilapias it was 122.4%; in assay [1] it was 120.4%. In the assay with IGF-I mRNA, the “Normalized IGF-I mRNA levels to a non related synthetic peptide control group” value was found to be 1.13. In addition, in the assay on lysozyme, the “Lysozyme levels of the treated animals relative to the control group” value is given as 1.17. In addition, the IC50 turned out to be 4.87 µM in the assay with PC12 cells (72 h) and 3.58 µM in assay [3].
